Reference: patent publication US20110137235A1, “ULTRASONIC CANCER THERAPY ACCELERATOR” (TOTO Ltd., priority 2008, published 2011)

Conditions: 20 mmol/liter acetic acid-sodium acetate buffer pH 3.6, 40° C., 25 hr
Source text: The titanium oxide complex particles and the dihydroxyphenylpropionic acid obtained in Example 1 were mixed together in 1) a 20 mmol/liter acetic acid-sodium acetate buffer solution (pH=3.6), 2) a 20 mmol/liter MES buffer solution (manufactured by Dojindo; pH=6.0), and 3) a 20 mmol/liter HEPES buffer solution (manufactured by Dojindo; pH=8.1) so that the final concentration of the titanium oxide complex particles and the final concentration of the dihydroxyphenylpropionic acid in the resultant mixed solutions were 2% and 50 mmol/liter, respectively. The total volume of each of the mixed solution was adjusted to 0.8 ml.
The adjusted solutions were stirred at 40° C. for 25 hr. For each solution, an absorption spectrum was measured in an ultraviolet-visible range (200 to 600 nm) with an ultraviolet-visible spectrometer.

O=C(O)CCc1ccc(O)c(O)c1 [dihydroxyphenylpropionic acid]
Change in absorption spectrum versus zero hr: little or no change was observed in the absorption spectrum
